Laboratory results from the supplement of paper PMC13380429.

What was measured:
Conditions in all cases: 72 h
HepG2 [1] = experiment: drug sensitivity score (DSS) for viability; higher = more toxic; extreme values may be limits of the assay
Calu-3 [2] = experiment: as above
Vero E6 [3] = experiment: as above
U2OS [4] = experiment: as above
Caco-2 [5] = experiment: as above
HepG2 [6] = experiment: cell viability relative to DMSO; higher = less toxic
Calu-3 [7] = experiment: as above
Vero E6 [8] = experiment: as above
U2OS [9] = experiment: as above
Caco-2 [10] = experiment: as above
HepG2 [11] = experiment: relative viability EC50 (midpoint between 100% and the lowest measured viability); higher = less toxic
Calu-3 [12] = experiment: as above
Vero E6 [13] = experiment: as above
U2OS [14] = experiment: as above
Caco-2 [15] = experiment: as above

Row | SMILES | drug sensitivity score (HepG2 [1]) | drug sensitivity score (Calu-3 [2]) | drug sensitivity score (Vero E6 [3]) | drug sensitivity score (U2OS [4]) | drug sensitivity score (Caco-2 [5]) | cell viability (HepG2 [6]; 1 nM) | cell viability (HepG2 [6]; 10 nM) | cell viability (HepG2 [6]; 100 nM) | cell viability (HepG2 [6]; 1000 nM) | cell viability (HepG2 [6]; 10000 nM) | cell viability (Calu-3 [7]; 1 nM) | cell viability (Calu-3 [7]; 10 nM) | cell viability (Calu-3 [7]; 100 nM) | cell viability (Calu-3 [7]; 1000 nM) | cell viability (Calu-3 [7]; 10000 nM) | cell viability (Vero E6 [8]; 1 nM) | cell viability (Vero E6 [8]; 10 nM) | cell viability (Vero E6 [8]; 100 nM) | cell viability (Vero E6 [8]; 1000 nM) | cell viability (Vero E6 [8]; 10000 nM) | cell viability (U2OS [9]; 1 nM) | cell viability (U2OS [9]; 10 nM) | cell viability (U2OS [9]; 100 nM) | cell viability (U2OS [9]; 1000 nM) | cell viability (U2OS [9]; 10000 nM) | cell viability (Caco-2 [10]; 1 nM) | cell viability (Caco-2 [10]; 10 nM) | cell viability (Caco-2 [10]; 100 nM) | cell viability (Caco-2 [10]; 1000 nM) | cell viability (Caco-2 [10]; 10000 nM) | relative viability EC50 (HepG2 [11]) | relative viability EC50 (Calu-3 [12]) | relative viability EC50 (Vero E6 [13]) | relative viability EC50 (U2OS [14]) | relative viability EC50 (Caco-2 [15])
1 | CC(/C=C/C(=O)NO)=C\[C@@H](C)C(=O)c1ccc(N(C)C)cc1 [trichostatin-a] | 20.6 | 16 | 24.6 | 21.4 | 24.9 | 101% | 93.1% | 84.2% | 0.4% | 0% | 107% | 103% | 89% | 20.4% | 7.5% | 98.7% | 94.4% | 44% | -0.2% | -0.1% | 99.7% | 95.4% | 77.3% | 1% | 0.7% | 97.3% | 101% | 37.1% | 2.4% | 3% | 0.194 µM | 0.336 µM | 0.0838 µM | 0.162 µM | 0.0788 µM
2 | CC1Sc2c(C(=O)O)c(=O)c3cc(F)c(N4CCNCC4)cc3n21 (stereo not given) [ulifloxacin] | 0.7 | 0 | 0 | 0.5 | 0 | 112% | 98.9% | 86.5% | 98.2% | 78.9% | 116% | 95.3% | 94% | 106% | 102% | 96.5% | 95.9% | 109% | 104% | 90.5% | 99.1% | 101% | 98.2% | 97.9% | 83.8% | 95.8% | 124% | 107% | 108% | 104% | > 10 µM | > 10 µM | > 10 µM | > 10 µM | > 10 µM
3 | Oc1nc(O)c2nc(O)[nH]c2n1 [uric-acid] | 0 | 0 | 0 | 0 | 0 | 94.7% | 97.1% | 95.9% | 92.5% | 96% | 96% | 95.3% | 93.5% | 98.4% | 101% | 98% | 104% | 97.9% | 102% | 98.4% | 101% | 107% | 99.6% | 102% | 98.4% | 96.5% | 98% | 92.6% | 91% | 95.9% | > 10 µM | > 10 µM | > 10 µM | > 10 µM | > 10 µM
4 | C[C@@H]1O[C@@H](O[C@@H]2[C@@H](O)[C@H](OCCc3ccc(O)c(O)c3)O[C@H](CO)[C@H]2OC(=O)/C=C/c2ccc(O)c(O)c2)[C@H](O)[C@H](O)[C@H]1O [verbascoside] | 0 | 0 | 0 | 0 | 0 | 95.3% | 102% | 101% | 106% | 104% | 98.6% | 93.3% | 106% | 105% | 97.1% | 98.9% | 99.8% | 94.4% | 101% | 104% | 97.9% | 100% | 96.5% | 96.8% | 93.6% | 96.4% | 89.7% | 97.8% | 99.8% | 96.9% | > 10 µM | > 10 µM | > 10 µM | > 10 µM | > 10 µM
5 | CCOc1ccccc1OCC1CNCCO1 (stereo not given) [viloxazine] | 0 | 0 | 0 | 0 | 0 | 116% | 91.7% | 111% | 94.7% | 96.6% | 86.6% | 98.2% | 98.6% | 100% | 111% | 96.4% | 89.4% | 94.1% | 92.2% | 102% | 94.8% | 98.5% | 102% | 104% | 105% | 111% | 99.5% | 113% | 118% | 95.6% | > 10 µM | > 10 µM | > 10 µM | > 10 µM | > 10 µM
6 | CC[C@]12CCCN3CCc4c(n(c5ccccc45)[C@@](O)(C(=O)OC)C1)[C@@H]32 [vincamine] | 0 | 0 | 0 | 0 | 0 | 99.1% | 73.5% | 118% | 102% | 97.7% | 103% | 94.2% | 94.9% | 95.6% | 102% | 103% | 89.9% | 104% | 94% | 97.7% | 95.3% | 99.3% | 96.2% | 99.7% | 97.3% | 101% | 105% | 91.6% | 101% | 100% | > 10 µM | > 10 µM | > 10 µM | > 10 µM | > 10 µM
7 | CCCCCCOc1nsnc1C1=CCCN(C)C1 [xanomeline] | 0.7 | 0 | 0 | 0 | 0 | 102% | 102% | 100% | 99.3% | 79.3% | 101% | 115% | 100% | 104% | 96.6% | 105% | 104% | 106% | 101% | 95.9% | 95.3% | 102% | 97.5% | 98.9% | 92.3% | 109% | 93.8% | 99.1% | 92.3% | 99.1% | > 10 µM | > 10 µM | > 10 µM | > 10 µM | > 10 µM
